Measured values: the SangsterLogP compilation

assay: method code SF-AS, from DOI: 10.2298/ciceq100329044p; details: pH 7.4

SMILES | logD
Cc1nc2ccccc2n1C(=O)c1ccc(Cl)cc1 | 3.95
Cc1ccc(Cn2c(C)nc3ccccc32)cc1 | 4.01
Cc1nc2ccccc2n1Cc1ccc(Cl)cc1 | 4.07
Cc1nc2ccccc2n1Cc1ccccc1 | 3.51

Other lines, results leading:

logD | SMILES
3.45 | Nc1nc2ccccc2n1C(=O)c1ccc(Cl)cc1
3.38 | Cc1nc2ccccc2n1C(=O)c1ccccc1
3.35 | Cc1ccc(C(=O)n2c(N)nc3ccccc32)cc1
2.9 | Nc1nc2ccccc2n1C(=O)c1ccccc1
3.87 | Cc1ccc(C(=O)n2c(C)nc3ccccc32)cc1
